Test results published in patent US20090143438A1, “Novel Pyridine Derivative Having Anti-Helicobacter Pylori Activity” (Arigen Pharmaceuticals, Inc., priority 2006, published 2009).
In brackets after ≈: the same amount, converted by molar mass. Like-named read-outs stand apart in the source and are kept apart here.

Key:
H. pylori NCTC 11916 = assay: In vitro MIC test in Columbia agar, standard strain; format: cell-based, Helicobacter pylori; details: for MIC: Helicobacter pylori, NCTC11916, 72 h, standard strain NCTC 11916, 37° C., pH 7.0, 3 days
Description: (§1) An in vitro test was performed in a Columbia agar medium using standard strains of H. pylori, NCTC 11637 and 11916, clinical isolates PT#1045482, PT#1045483 and PT#1045484, and ofloxacin- and roxithromycin-resistant, clinical isolates TY2, 4 and 5. Each of the test objects was dissolved in a 1% DMSO solution. Furthermore, as antibiotic control drugs, roxithromycin from the macrolide family and ofloxacin from the new quinolone family were used. The strains were cultured at 37° C. and pH 7.0 for 3 days, and on the 4th day, the minimum inhibitory concentrations (MIC, μg/ml) were determined.

H. pylori NCTC 11637 = assay: as above; format: cell-based, Helicobacter pylori; details: for MIC: Helicobacter pylori, NCTC11637, 72 h, standard strain NCTC 11637, 37° C., pH 7.0, 3 days
Description: as §1

[1] = tested on: H. pylori clinical isolate PT#1045483; assay: In vitro MIC test in Columbia agar, clinical isolate; format: cell-based; details: Helicobacter pylori, 72 h, 37° C., pH 7.0, 3 days
Description: as §1

[2] = tested on: H. pylori clinical isolate PT#1045482; assay: as above; format: cell-based; details: Helicobacter pylori, 72 h, 37° C., pH 7.0, 3 days
Description: as §1

[3] = tested on: H. pylori clinical isolate PT#1045484; assay: as above; format: cell-based; details: Helicobacter pylori, 72 h, 37° C., pH 7.0, 3 days
Description: as §1

H. pylori, ATCC 43504 = assay: Antibacterial power test, Columbia agar, MIC; format: cell-based, Helicobacter pylori; details: 37° C., pH 7.0, 3 days, read on 4th day; for MIC: Helicobacter pylori, ATCC43504, 72 h, read-out: MIC, in vitro anti-Helicobacter pylori activity
Description: An in vitro test was performed in a Columbia agar medium using a standard strain of H. pylori, ATCC 43504. […] Each of the test objects was dissolved in a 1% DMSO solution. Furthermore, as antibiotic control drugs, ampicillin from the penicillin family (control drug 1), gentamycin from the aminoglycoside family (control drug 2), tetracycline from the tetracycline family (control drug 3), and ofloxacin from the new quinolone family (control drug 4) were used.

[4] = tested on: Klebsiella pneumonia (ATCC 10031); assay: In vitro antibacterial test against various bacteria, MIC; format: cell-based; details: 20 to 48 hours
Description: (§2) An in vitro antibacterial test for the compounds of Examples 1 to 6 against various bacteria was performed. As gram-negative bacteria, Escherichia coli (ATCC 10536, ATCC 25922), Klebsiella pneumonia (ATCC 10031), Proteus vulgaris (ATCC 13315), Pseudomonas aeruginosa (ATCC 9027), Salmonella typhimurium (ATCC 13311), and as gram-positive bacteria, Staphylococcus aureus, MRSA (ATCC 33591), Staphylococcus epidermidis (ATCC 12228), Streptococcus pneumonia (ATCC 6301), Mycobacterium ranae (ATCC 110) and Enterococcus faecalis (VRE, ATCC 51575) were used. The various bacteria were cultured at 37° C. for 20 to 48 hours by conventional methods, and the minimum inhibitory concentrations (MIC, μg/ml) were determined. Each of the test objects were dissolved in a 1% DMSO solution. Furthermore, as an antibiotic control drug, gentamycin (GEM) from the aminoglycoside family was used.

[5] = tested on: Enterococcus faecalis (VRE, ATCC 51575); assay: as above; format: cell-based; details: 37° C., 20 to 48 hours
Description: as §2

[6] = tested on: Staphylococcus epidermidis (ATCC 12228); assay: as above; format: cell-based; details: 20 to 48 hours
Description: as §2

[7] = tested on: Pseudomonas aeruginosa (ATCC 9027); assay: as above; format: cell-based; details: 20 to 48 hours
Description: as §2

[8] = tested on: Proteus vulgaris (ATCC 13315); assay: as above; format: cell-based; details: 20 to 48 hours
Description: as §2

[9] = tested on: Mycobacterium ranae (ATCC 110); assay: as above; format: cell-based; details: 20 to 48 hours
Description: as §2

[10] = tested on: Escherichia coli (ATCC 10536); assay: as above; format: cell-based; details: 20 to 48 hours
Description: as §2

[11] = tested on: Streptococcus pneumonia (ATCC 6301); assay: as above; format: cell-based; details: Streptococcus pneumoniae, ATCC6301, 37° C., 20 to 48 hours
Description: as §2

[12] = tested on: Escherichia coli (ATCC 25922); assay: as above; format: cell-based; details: 20 to 48 hours
Description: as §2

[13] = tested on: Salmonella typhimurium (ATCC 13311); assay: as above; format: cell-based; details: 37° C., 20 to 48 hours
Description: as §2

[14] = tested on: Staphylococcus aureus, MRSA (ATCC 33591); assay: as above; format: cell-based; details: 37° C., 20 to 48 hours
Description: as §2

[15] = tested on: H. pylori ofloxacin- and roxithromycin-resistant clinical isolate TY2; assay: In vitro MIC test in Columbia agar, resistant clinical isolate; format: cell-based; details: Helicobacter pylori, 72 h; resistant strain TY2; 37° C., pH 7.0, 3 days
Description: as §1

[16] = tested on: H. pylori ofloxacin- and roxithromycin-resistant clinical isolate TY4; assay: as above; format: cell-based; details: Helicobacter pylori, 72 h; resistant strain TY4; 37° C., pH 7.0, 3 days
Description: as §1

[17] = tested on: H. pylori ofloxacin- and roxithromycin-resistant clinical isolate TY5; assay: as above; format: cell-based; details: Helicobacter pylori, 72 h; resistant strain TY5; 37° C., pH 7.0, 3 days
Description: as §1

[18] = tested on: various gram-negative bacteria and gram-positive bacteria; assay: In vitro antibacterial test against various bacteria, overall statement; format: cell-based; details: bacteria of Table 4
Description: as §2

[19] = Klebsiella pneumoniae, ATCC10031, 37° C., read-out: MIC
[20] = ATCC12228, 37° C., read-out: MIC
[21] = ATCC9027, 37° C., read-out: MIC
[22] = ATCC13315, 37° C., read-out: MIC
[23] = ATCC10536, 37° C., read-out: MIC
[24] = ATCC25922, 37° C., read-out: MIC
[25] = Salmonella enterica, read-out: MIC

| Molecule | MIC (H. pylori NCTC 11916) [µg/mL] | MIC (H. pylori NCTC 11637) [µg/mL] | MIC [1] [µg/mL] | MIC [2] [µg/mL] | MIC [3] [µg/mL] | MIC (H. pylori, ATCC 43504) [µg/mL] | MIC [4, 19] [µg/mL] | MIC [5] [µg/mL] | MIC [6, 20] [µg/mL] | MIC [7, 21] [µg/mL] | MIC [8, 22] [µg/mL] | MIC ([9]; ATCC110, 37° C., read-out: MIC) [µg/mL] | MIC [10, 23] [µg/mL] | MIC [11] [µg/mL] | MIC [12, 24] [µg/mL] | MIC [13, 25] [µg/mL] | MIC ([14]; read-out: MIC) [µg/mL] | MIC [15] [µg/mL] | MIC [16] [µg/mL] | MIC [17] [µg/mL] | further results |
| --- | --- | --- | --- | --- | --- | --- | --- | --- | --- | --- | --- | --- | --- | --- | --- | --- | --- | --- | --- | --- | --- |
| Cc1c(OCCCCCCCCO)ccnc1CSc1nc2ccccc2[nH]1 [Example 4, 2-[{4-(8-hydroxyoctyloxy)-3-methylpyridin-2-yl}methylthio]-1H-benzimidazole] | 0.03 (≈ 0.0751 µM) | 0.03 (≈ 0.0751 µM) | 0.03 (≈ 0.0751 µM) | 0.03 (≈ 0.0751 µM) | 0.03 (≈ 0.0751 µM) | 0.03 (≈ 0.0751 µM) | > 100 | > 100 | > 100 | > 100 | > 100 | > 100 | > 100 | > 100 | > 100 | > 100 | > 100 | 0.03 (≈ 0.0751 µM) | 0.1 (≈ 0.25 µM) | 0.03 (≈ 0.0751 µM) | activity compared to the compounds (e) and (f) (H. pylori NCTC 11916; standard strain NCTC11916): 52 fold; activity compared to the compounds (e) and (f) (H. pylori NCTC 11637; standard strain NCTC11637): 26.6 fold |
| Cc1c(OCCCCCCCCCO)ccnc1CSc1nc2ccccc2[nH]1 [Example 5, 2-[{4-(9-hydroxynonyloxy)-3-methylpyridin-2-yl}methylthio]-1H-benzimidazole] | 0.1 (≈ 0.242 µM) | 0.1 (≈ 0.242 µM) | 0.1 (≈ 0.242 µM) | 0.2 (≈ 0.484 µM) | 0.1 (≈ 0.242 µM) | 0.1 (≈ 0.242 µM) | > 100 | > 100 | > 100 | > 100 | > 100 | > 100 | > 100 | > 100 | > 100 | > 100 | > 100 | 0.1 (≈ 0.242 µM) | 0.3 (≈ 0.725 µM) | 0.2 (≈ 0.484 µM) | – |
| Cc1c(OCCCCCCCCCCO)ccnc1CSc1nc2ccccc2[nH]1 [Example 6, 2-[{4-(10-hydroxydecyloxy)-3-methylpyridin-2-yl}methylthio]-1H-benzimidazole] | 0.2 (≈ 0.468 µM) | 0.3 (≈ 0.702 µM) | 0.3 (≈ 0.702 µM) | 0.3 (≈ 0.702 µM) | 0.3 (≈ 0.702 µM) | 0.3 (≈ 0.702 µM) | > 100 | > 100 | > 100 | > 100 | > 100 | > 100 | > 100 | > 100 | > 100 | > 100 | > 100 | 0.3 (≈ 0.702 µM) | 0.3 (≈ 0.702 µM) | 0.3 (≈ 0.702 µM) | – |
| gentamycin [Control Drug 2 (Gentamycin), reference compound] | – | – | – | – | – | – | – | – | – | – | – | – | – | – | – | – | – | – | – | – | antibacterial action against various gram-negative and gram-positive bacteria (in words) [18]: strong antibacterial action; MIC, in vitro anti-Helicobacter pylori activity (H. pylori, ATCC 43504): 0.3 µg/mL; MIC ([4]; 37° C.): 1.0 µg/mL; MIC ([6]; 37° C.): 0.1 µg/mL; MIC ([7]; 37° C.): 0.3 µg/mL; MIC ([8]; 37° C.): 0.3 µg/mL; MIC ([9]; 37° C.): 0.3 µg/mL; MIC ([10]; 37° C.): 0.3 µg/mL; MIC ([12]; 37° C.): 1.0 µg/mL; MIC [13]: 1.0 µg/mL; MIC [14]: 1.0 µg/mL |
